Laboratory results as given in patent US8852240B2, “Methods and compositions for fostering and preserving bone growth” (Kieran Murphy, LLC, priority 2004, dated 2014).
“Also recorded” adds a separate entry of the source.

How the values were obtained:
[1] = test system: femoral shaft marrow cavity; assay: Micro-CT analysis of the femoral shaft marrow cavity after bone marrow ablation (BMX); format: in vivo, rat; conditions: for protection of bone formed in the marrow cavity (Micro-CT): BMX + PTH 21 days, then anti-resorptive drug for an additional 63 days, FIG. 7B
Excerpt: FIG. 1B depicts the results from the same groups of animals using the imaging technique known as Micro-CT. This technique provides a high resolution analysis of the femoral shaft marrow cavity from the Control, BMX, and the BMX+PTH 1-34 NH2 of rats treated with PBS (buffer) or PTH for 21 or 84 days, respectively;
FIG. 6B depicts the results obtained from the same groups of animals reported in FIG. 6A using the Micro-CT imaging technique. This imaging technique provides a high resolution analysis of the femoral shaft marrow cavity from the BMX+PBS or PBX+PTH treatments, compared with femurs that had biocompatible materials (Cementek or Pepgen-15) injected into the bone marrow cavity following the step (e.g., ablation) resulting in the inducement of increased osteoblast activity; and
FIG. 7B depicts the results from the same groups of animals reported in FIG. 7A using the Micro-CT imaging technique, which provides a high resolution analysis of the femoral shaft marrow cavity.

[2] = test system: marrow cavity of rat femur; assay: Calcein labeling of mid-shaft sections of rat femur after bone marrow ablation (BMX); format: in vivo; conditions: for protection of bone formed in the marrow cavity (calcein fluorescent signal): BMX + PTH 21 days, then anti-resorptive agent for the next 63 days (days 22-84), FIG. 7A
Method: FIG. 1A is a section of the mid-shaft of a rat femur following, respectively, 21 and 84 days of treatment. The groups include: (a) control—no bone marrow ablation (“BMX”) or anabolic agent, (b) BMX—bone marrow ablation alone; and (c) BMX+PTH−bone marrow ablation plus treatment for either 21 or 84 days with PTH 1-34 NH2. In addition, the rats were injected with calcein, a fluorescent dye, on 9, 8, 2 and 1 day prior to sacrificing the animals. Calcein becomes incorporated into bone and serves as a measure of bone growth and mineralization;
FIG. 6A illustrates the degree of persistent bone growth achieved after 84 days with the administration of a biocompatible material, in this instance Cementek (Cementek LV, Non-stoichiometric hydroxyapatite prepared from the reaction between the acid and base calcium phosphates in the presence of an aqueous solution. Teknimid, 65500 VIV en Biggore, France) or Pepgen-15 (a high purity anorganic bovine graft material, radiopaque, peptide-enhanced to mimic autogeneous bone. Dentsply Friadent CeraMed Lakewood, Colo.). All samples were taken from femurs which had BMX performed on them. The groups included: BMX followed by 84 days anabolic agent or PBS (buffer) presented in the first row or BMX followed by insertion of a slurry of biocompatible matrix (Cementek or Pepgen-15) with our without concomitant PTH treatment for 84 days;
FIGS. 7A and 7B illustrate the effect attributable to administration of the anti-resorption agent, Alendronate, in preserving bony tissue formed according to the method of the invention. The following treatment modalities are included: (a) BMX+PTH 1-34 NH2 for 21 days+PBS (buffer) during days 22-84; (b) BMX+PTH 1-34 NH2 for 21 days+calcitonin during days 22-84; (c) BMX+PTH 1-34 NH2 for 21 days+Alendronate during days 22-84; and (d) BMX+PTH 1-34 NH2 during days 1-84.

Row | Molecule | protection of bone formed in the marrow cavity (Micro-CT) [1] | protection of bone formed in the marrow cavity (calcein fluorescent signal) [2] | protection of bone formed in the marrow cavity (calcein fluorescent signal) ([2]; listed as Alendronate) | bone in femoral shaft marrow cavity (Micro-CT) ([1]; BMX + PTH 1-34 NH2 + biocompatible material versus biocompatible material alone, 84 days, FIG. 6B) | newly formed bone in the marrow cavity (Micro-CT) ([1]; BMX + PTH for 21 days, day 21, FIG. 1B) | bone in marrow cavity of femur mid-shaft/diaphysis (Micro-CT) ([1]; BMX + PTH for 84 days, day 84, FIG. 1B / 7B) | bone formation in femur mid-shaft (calcein) ([2]; BMX + PTH for 21 days, day 21, FIG. 1A) | bone / fluorescent label remaining in ablated marrow cavity (calcein) ([2]; BMX + PTH for 84 days, day 84, FIG. 1A / 7A) | bone formation in femurs receiving a biocompatible matrix material (calcein) ([2]; BMX + biocompatible matrix + PTH 84 days versus buffer (PBS), FIG. 6A)
1 | NCCCC(O)(P(=O)(O)O)P(=O)(O)O [alendronate] | to a greater extent | protect the bone | greater protective effect | – | – | – | – | – | –
2 | PTH 1-34 NH2 | – | – | – | better results than the use of biocompatible material alone | further augmented | no longer contains substantial amounts of bone; also recorded: no longer contains radio-dense bone | leads to additional bone formation | resorption of a substantial portion of the bone that was present at day 21; also recorded: contains a minimum amount of fluorescent label; also recorded: no longer contains fluorescent labels | markedly greater than for buffer (PBS) alone
3 | calcitonin | protects the bone | protected; also recorded: protect the bone | – | – | – | – | – | – | –
